{"source": "ChEMBL document CHEMBL5131389", "about": "“PSMA-targeted small-molecule docetaxel conjugate: Synthesis and preclinical evaluation” (Eur J Med Chem, 2022)", "key": {"[1]": {"assay": "Acute toxicity in Wistar rat assessed as hypertrophied adrenal gland at 15 to 279 mg/kg, iv administered as pluronic F127 formulation and measured for 14 days", "assay_type": "organism-based", "conditions": "in vivo, 336 h, dose 15-279 mg/kg, time 14 day"}, "[2]": {"assay": "Ratio of AUC (t to infinity) to AUC (0 to infinity) in Albino Wistar rat at 15 mg/kg, iv administered as pluronic F127 formulation measured upto 72 hrs by high-performance liquid chromatography tandem mass spectrometric analysis", "assay_type": "ADME, organism-based", "conditions": "in vivo"}, "[3]": {"assay": "AUC (0 to t) in Soviet Chinchilla rabbit at 8.1 mg/kg, iv administered as pluronic F127 formulation measured upto 72 hrs by high-performance liquid chromatography tandem mass spectrometric analysis", "assay_type": "ADME, organism-based, Oryctolagus cuniculus", "design": "dose 8.1 mg/kg, time < 72 hrs, route iv", "conditions": "in vivo"}, "[4]": {"assay": "MRT (0 to t) in Albino Wistar rat at 15 mg/kg, iv administered as pluronic F127 formulation measured upto 72 hrs by high-performance liquid chromatography tandem mass spectrometric analysis", "assay_type": "ADME, organism-based", "conditions": "in vivo"}, "[5]": {"biological_target": "T1, Liver carboxylesterase (Sus scrofa, UniProt Q29550)", "T1 sequence (Q29550 whole entry)": "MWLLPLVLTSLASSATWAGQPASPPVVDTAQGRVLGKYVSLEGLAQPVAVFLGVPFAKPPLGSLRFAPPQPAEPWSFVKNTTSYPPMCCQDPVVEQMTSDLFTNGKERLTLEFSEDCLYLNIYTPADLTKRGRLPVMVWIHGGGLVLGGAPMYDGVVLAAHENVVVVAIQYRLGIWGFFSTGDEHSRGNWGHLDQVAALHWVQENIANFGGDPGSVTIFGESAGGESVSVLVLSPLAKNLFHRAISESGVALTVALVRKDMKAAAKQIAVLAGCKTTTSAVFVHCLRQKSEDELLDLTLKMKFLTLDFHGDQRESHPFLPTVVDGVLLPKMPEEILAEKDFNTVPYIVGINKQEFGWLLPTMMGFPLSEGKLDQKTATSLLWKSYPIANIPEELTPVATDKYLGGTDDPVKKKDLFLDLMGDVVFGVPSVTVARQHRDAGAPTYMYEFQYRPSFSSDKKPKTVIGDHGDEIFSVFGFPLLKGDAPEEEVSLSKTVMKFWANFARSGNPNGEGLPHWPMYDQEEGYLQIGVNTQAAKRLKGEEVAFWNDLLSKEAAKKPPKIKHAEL", "assay": "Stability of the compound in porcine liver esterase assessed as compound remaining measured upto 96 hrs by LCMS based mass spectrometric analysis relative to initial amount", "assay_type": "ADME", "conditions": "pig, read-out: Stability"}, "[6]": {"tested_on": "DU-145", "assay": "Antitumor activity against human DU-145 cells xenografted in BALB/c nude mouse assessed as tumor growth inhibition at 30 mg/kg, ip measured upto 30 days", "assay_type": "functional", "conditions": "DU-145, 720 h, time <= 30 day, read-out: TGI"}, "[7]": {"assay": "Toxicity in Balb/c nude mouse xenografted with human 22Rv1 cells assessed as animal death at 30 mg/kg, ip measured upto 30 days", "assay_type": "organism-based, CWR22R", "conditions": "in vivo, 720 h, time < 30 day"}, "[8]": {"assay": "Chronic toxicity in rat assessed as increase in relative spleen mass at 18.75 mg/kg, iv administered as pluronic F127 formulation at 4 intervals for 21 days and observed 3 weeks post last injection relative to control", "assay_type": "organism-based", "conditions": "in vivo, 2544 h, time 106 day"}, "[9]": {"assay": "Chronic toxicity in rat assessed as decrease in relative mass of testes administered intravenously as pluronic F127 formulation at 4 intervals for 21 days and observed 3 weeks post last injection relative to control", "conditions": "in vivo, iv, 2544 h, time 106 day"}, "[10]": {"assay": "Chronic toxicity in Soviet Chinchilla rabbit assessed as increase in body weight at 12.21 mg/kg, iv administered as pluronic F127 formulation at 4 intervals for 21 days and observed 3 weeks post last injection relative to control", "assay_type": "organism-based, Oryctolagus cuniculus", "conditions": "in vivo, 2544 h, time 106 day"}, "[11]": {"assay": "Acute toxicity in Wistar rat assessed as lethal dose administered intravenously as pluronic F127 formulation and measured for 14 days", "conditions": "in vivo, route iv, time 14 day"}, "[12]": {"tested_on": "DU-145", "assay": "Antitumor activity against human DU-145 cells xenografted in BALB/c nude mouse assessed as reduction in tumor growth index at 60 mg/kg, ip measured upto 30 days (reference value: 1110.1 +/- 136.7 %)", "assay_type": "functional", "design": "scale not given: the % may be the effect or the level left", "conditions": "time <= 30 day"}, "[13]": {"assay": "Chronic toxicity in rat assessed as hair loss at 15 to 18.45 mg/kg, iv administered as pluronic F127 formulation at 4 intervals for 21 days and observed 3 weeks post last injection", "assay_type": "organism-based", "conditions": "in vivo, 2544 h, dose 15-18.45 mg/kg, time 106 day"}, "[14]": {"assay": "Acute toxicity in ICR mouse assessed as hypertrophied adrenal gland at 183 to 960 mg/kg, iv administered as pluronic F127 formulation and measured for 14 days", "assay_type": "organism-based", "conditions": "in vivo, 336 h, dose 183-960 mg/kg, time 14 day"}, "[15]": {"tested_on": "PC-3", "assay": "Cytotoxicity against human PC-3 cells assessed as reduction in cell viability measured after 72 hrs by MTT assay", "assay_type": "functional"}, "[16]": {"assay": "Chronic toxicity in rat assessed as change in volume of excreted urine at 18.75 to 22.5 mg/kg, iv administered as pluronic F127 formulation at 4 intervals for 21 days and observed 3 weeks post last injection", "assay_type": "organism-based", "conditions": "in vivo, 2544 h, dose 18.75-22.5 mg/kg, time 106 day"}, "[17]": {"assay": "Chronic toxicity in Soviet Chinchilla rabbit assessed as decrease in body weight at 8.14 mg/kg, iv administered as pluronic F127 formulation at 4 intervals for 21 days and observed 3 weeks post last injection", "assay_type": "organism-based, Oryctolagus cuniculus", "conditions": "in vivo, 2544 h, time 106 day"}, "[18]": {"assay": "Chronic toxicity in rat assessed as increase in creatinine concentration at 18.75 to 22.5 mg/kg, iv administered as pluronic F127 formulation at 4 intervals for 21 days and observed 3 weeks post last injection relative to control", "assay_type": "organism-based", "conditions": "in vivo, 2544 h, dose 18.75-22.5 mg/kg, time 106 day"}, "[19]": {"assay": "Chronic toxicity in rat assessed as neurological disorder at 22.5 mg/kg, iv administered as pluronic F127 formulation at 4 intervals for 21 days and observed 3 weeks post last injection", "assay_type": "organism-based", "conditions": "in vivo, 2544 h, time 106 day"}, "[20]": {"tested_on": "CWR22R", "assay": "Antitumor activity against human 22Rv1 cells xenografted in Balb/c nude mouse assessed as tumor growth inhibition at 20 mg/kg, ip administered once in two days for three times and measured 4 days after the end of treatment relative to control", "assay_type": "functional", "conditions": "22Rv1, 240 h, time 10 day, read-out: TGI"}, "[21]": {"assay": "Chronic toxicity in rat assessed as reduction in grooming frequency at 22.5 mg/kg, iv administered as pluronic F127 formulation at 4 intervals for 21 days and observed 3 weeks post last injection", "assay_type": "organism-based", "conditions": "in vivo, 2544 h, time 106 day"}, "[22]": {"assay": "Chronic toxicity in rat assessed as change in relative density of urine at 22.5 mg/kg, iv administered as pluronic F127 formulation at 4 intervals for 21 days and observed 3 weeks post last injection", "assay_type": "organism-based", "conditions": "in vivo, 2544 h, time 106 day"}, "[23]": {"assay": "Subchronic toxicity in Wistar rat assessed as cumulative effect of drug at 58 mg/kg, iv administered as pluronic F127 formulation daily for 28 days", "assay_type": "organism-based", "conditions": "in vivo, 672 h, time 28 day"}, "[24]": {"tested_on": "CWR22R", "assay": "Antitumor activity against human 22Rv1 cells xenografted in Balb/c nude mouse assessed as tumor growth inhibition at 10 mg/kg, ip administered once in two days for three times and measured 4 days after the end of treatment relative to control", "assay_type": "functional", "conditions": "22Rv1, 240 h, time 10 day, read-out: TGI"}, "[25]": {"assay": "Chronic toxicity in Soviet Chinchilla rabbit assessed as decrease in body weight at 10.17 mg/kg, iv administered as pluronic F127 formulation at 4 intervals for 21 days and observed upto day 49", "assay_type": "organism-based, Oryctolagus cuniculus", "conditions": "in vivo, 1176 h, time < 49 day"}}, "note": "Values joined by “and” are separate entries in the source; they are usually repeats but may differ in a detail not shown here. Equal values may be shown once.", "data": [{"smiles": "CC(=O)O[C@@]12CO[C@@H]1C[C@H](O)[C@@]1(C)C(=O)[C@H](O)C3=C(C)[C@@H](OC(=O)[C@H](OC(=O)CCCc4cn(CCCNC(=O)[C@H](Cc5ccc(O)cc5)NC(=O)[C@H](Cc5ccccc5)NC(=O)CCC(=O)NCCCCCC(=O)N(CCCC[C@H](NC(=O)N[C@@H](CCC(=O)O)C(=O)O)C(=O)O)Cc5cccc(Cl)c5)nn4)[C@@H](NC(=O)OC(C)(C)C)c4ccccc4)C[C@@](O)([C@@H](OC(=O)c4ccccc4)[C@H]21)C3(C)C", "values": [{"measurement": "Activity", "setting": "[1]", "value": "Toxic"}, {"measurement": "Ratio AUC", "setting": "[2]", "value": 11, "unit": "%"}, {"measurement": "AUC(0-t) at 72 h", "setting": "[3]", "value": 253, "unit": "µg·h/mL"}, {"measurement": "MRT last at 72 h", "setting": "[4]", "value": 24, "unit": "min"}, {"measurement": "remaining at 96 h", "setting": "[5]", "value": 60, "unit": "%"}, {"measurement": "inhibition in vivo at 30 mg/kg", "setting": "[6]", "value": 81.7, "unit": "%"}, {"measurement": "Activity", "setting": "[7]", "value": "Toxic"}, {"measurement": "Activity", "setting": "[8]", "value": "Toxic"}, {"measurement": "Activity", "setting": "[9]", "value": "Toxic"}, {"measurement": "Activity", "setting": "[10]", "value": "Toxic"}, {"measurement": "LD50 at 336 h", "setting": "[11]", "value": "58 mg/kg and 30 µmol/kg"}, {"measurement": "Activity", "setting": "[12]", "value": 150.9, "unit": "%"}, {"measurement": "Activity", "setting": "[13]", "value": "Non-Toxic"}, {"measurement": "Activity", "setting": "[14]", "value": "Toxic"}, {"measurement": "CC50", "setting": "[15]", "value": 2.8, "unit": "nM"}, {"measurement": "Activity", "setting": "[16]", "value": "Toxic"}, {"measurement": "Activity", "setting": "[17]", "value": "Toxic"}, {"measurement": "Activity", "setting": "[18]", "value": "Toxic"}, {"measurement": "Activity", "setting": "[19]", "value": "Toxic"}, {"measurement": "inhibition in vivo at 20 mg/kg", "setting": "[20]", "value": 85, "unit": "%"}, {"measurement": "Activity", "setting": "[21]", "value": "Toxic"}, {"measurement": "Activity", "setting": "[22]", "value": "Toxic"}, {"measurement": "Activity", "setting": "[23]", "value": "Toxic"}, {"measurement": "inhibition in vivo at 10 mg/kg", "setting": "[24]", "value": 88, "unit": "%"}, {"measurement": "Activity", "setting": "[25]", "value": "Toxic"}]}]}
